This note sets out measurements from paper PMC5746379 (2017).

Experiment [1] concerns P1 (DNA, G4) GGGCGGTGGGAGGGGGGTGGTGGG
Briefly: absorption, fluorescence titration, WaterLOGSY NMR. The note with it: buffer and highest concentration not stated.

Experiment [2] concerns P2 (DNA, G4) GGGCGGGGAGGGGGG
In words: WaterLOGSY 1H NMR. The settings on record: 298 K; water with 10% D2O.

For experiment [3], the system named is P1 (DNA, G4) GGGCGGTGGGAGGGGGGTGGTGGG
Briefly: CD melting. The settings on record: 1:3 ratio P1-M2; Tm ~79 °C with and without M2; buffer not stated.

The subject of experiment [4] is P2 (DNA, G4) GGGCGGGGAGGGGGG
Briefly: fluorescence titration of M2 (emission shift Δλ). The note with it: excitation 345 nm; buffer not stated.

For the molecule `CN(CCC#N)c1ccc(C=NCCCN=Cc2ccc(N(C)CCC#N)cc2)cc1`, the binding entry is on record as “no” in experiment [1], “yes” in experiment [2] and “no” in experiment [3]. Also, the KD in experiment [4] was determined as 13.2 µM.

The KD is the equilibrium constant for the complex coming apart.
